In patent US20200405697A1, “Antitumor Agent” (Taiho Pharmaceutical Co., Ltd, priority 2017, published 2020):

target: T1, human RNR (histidine tagged human M1 and human M2 proteins) (Homo sapiens, UniProt P23921); assay: Human RNR inhibition effect (dCDP formation from CDP); assay type: biochemical; conditions: 10 μM CDP, 37° C. for 30 minutes, read-out: RNR inhibitory activity IC50
T1 construct: made in house; host or cells: Escherichia coli
T1 sequence (P23921 1-792): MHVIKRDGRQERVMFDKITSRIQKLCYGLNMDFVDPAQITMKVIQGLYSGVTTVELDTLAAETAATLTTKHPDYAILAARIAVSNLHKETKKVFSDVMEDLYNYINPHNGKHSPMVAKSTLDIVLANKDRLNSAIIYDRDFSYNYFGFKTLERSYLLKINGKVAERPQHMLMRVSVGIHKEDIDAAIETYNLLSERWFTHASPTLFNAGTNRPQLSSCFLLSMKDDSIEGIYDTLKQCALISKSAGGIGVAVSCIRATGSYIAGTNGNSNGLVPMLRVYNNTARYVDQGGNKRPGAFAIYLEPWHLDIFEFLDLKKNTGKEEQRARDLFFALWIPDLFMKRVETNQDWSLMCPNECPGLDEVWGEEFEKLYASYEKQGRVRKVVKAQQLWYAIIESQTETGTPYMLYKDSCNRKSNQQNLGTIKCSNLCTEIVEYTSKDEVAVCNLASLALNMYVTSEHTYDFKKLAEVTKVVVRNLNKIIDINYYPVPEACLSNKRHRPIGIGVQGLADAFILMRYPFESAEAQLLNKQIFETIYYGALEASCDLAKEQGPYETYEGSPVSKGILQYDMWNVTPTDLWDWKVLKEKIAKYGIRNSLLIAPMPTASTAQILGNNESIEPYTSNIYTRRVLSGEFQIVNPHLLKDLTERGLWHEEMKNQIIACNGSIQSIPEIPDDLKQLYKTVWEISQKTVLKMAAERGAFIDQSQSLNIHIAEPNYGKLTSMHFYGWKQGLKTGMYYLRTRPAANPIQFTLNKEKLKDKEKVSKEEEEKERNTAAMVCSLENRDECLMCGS
Method in brief: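 His-tagged human M1 (isoform 1) and N-terminal 59-aa-truncated M2 (isoform 2), E. coli-expressed, Ni-purified, preincubated 20 min with compound (1% DMSO). Reaction with 10 μM CDP, 2 mM ATP, 0.24 mM NADPH, 6 mM DTT, 4 mM Mg acetate, 100 mM KCl, 50 mM HEPES pH 7.2, 30 min at 37° C. dCDP formed quantified by reverse-phase HPLC after heat stop.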

SMILES | IC50 [nM]
Cc1c(Cl)ccc(F)c1[C@@H](C)[C@H](NS(=O)(=O)c1ccc(Cl)c2c1OCCC2(C)N)c1n[nH]c(=O)o1 (single isomer, unassigned) [Example 330B] | 460
Cc1cc(F)cc([C@@H](C)[C@H](NS(=O)(=O)c2ccc(Cl)cc2C(N)=O)c2n[nH]c(=O)o2)c1C [Example 7, 15-chloro-2-(N-((1S,2R)-2-(5-fluoro-2,3-dimethylphenyl)-1-(5-oxo-4,5-dihydro-1,3,4-oxadiazol-2-yl)propyl)sulfamoyl)benzamide] | 450
COc1cc(Cl)ccc1S(=O)(=O)N[C@H](c1n[nH]c(=O)o1)[C@H](C)c1c(F)ccc(-c2ccc(Cl)nc2)c1C [Example 313, 4-chloro-N-((1S,2R)-2-(3-(6-chloropyridin-3-yl)-6-fluoro-2-methylphenyl)-1-(5-oxo-4,5-dihydro-1,3,4-oxadiazol-2-yl)propyl)-2-methoxybenzenesulfonamide] | 340
Cc1ccc(F)c([C@@H](C)[C@H](NS(=O)(=O)c2ncc(Br)cc2C(N)=O)c2n[nH]c(=O)o2)c1C [Example 250, 5-bromo-2-(N-((1S,2R)-2-(6-fluoro-2,3-dimethylphenyl)-1-(5-oxo-4,5-dihydro-1,3,4-oxadiazol-2-yl)propyl)sulfamoyl)nicotinamide] | 20
Cc1c(Cl)ccc(F)c1[C@@H](C)[C@H](NS(=O)(=O)c1ccc(Cl)c2c1OCCC2O)c1n[nH]c(=O)o1 (single isomer, unassigned) [Example 238A] | 110
Cc1ccc(F)c([C@@H](C)[C@H](NS(=O)(=O)c2ncc(Cl)cc2C(=O)O)c2n[nH]c(=O)o2)c1C [Example 213, 5-chloro-2-(N-((1S,2R)-2-(6-fluoro-2,3-dimethylphenyl)-1-(5-oxo-4,5-dihydro-1,3,4-oxadiazol-2-yl)propyl)sulfamoyl)nicotinic acid] | 500
Cc1ccc(F)c([C@@H](C)[C@H](NS(=O)(=O)c2cccc3c2OCCC3(O)C(F)(F)F)c2n[nH]c(=O)o2)c1C (stereo partly drawn) [Example 211A, N-((1S,2R)-2-(6-fluoro-2,3-dimethylphenyl)-1-(5-oxo-4,5-dihydro-1,3,4-oxadiazol-2-yl)propyl)-4-hydroxy-4-(trifluoromethyl)chroman-8-sulfonamide] | 120
Cc1ccc(F)c([C@@H](C)[C@H](NS(=O)(=O)c2ccc(Br)c(C#N)c2)c2n[nH]c(=O)o2)c1C [Example 343, 4-bromo-3-cyano-N-((1S,2R)-(6-fluoro-2,3-dimethylphenyl)-1-(5-oxo-4,5-dihydro-1,3,4-oxadiazol-2-yl)propyl)benzenesulfonamide] | 640
Cc1c(Cl)ccc(F)c1[C@@H](C)[C@H](NS(=O)(=O)c1ccc(Br)cc1C(N)=O)c1n[nH]c(=O)o1 [Example 25, 5-bromo-2-(N-((1S,2R)-2-(3-chloro-6-fluoro-2-methylphenyl)-1-(5-oxo-4,5-dihydro-1,3,4-oxadiazol-2-yl)propyl)sulfamoyl)benzamide] | 150
Cc1ccc(F)c([C@@H](C)[C@H](NS(=O)(=O)c2ccc(F)c(S(C)(=O)=O)c2)c2n[nH]c(=O)o2)c1C [Example 169, 4-fluoro-N-((1S,2R)-2-(6-fluoro-2,3-dimethylphenyl)-1-(5-oxo-4,5-dihydro-1,3,4-oxadiazol-2-yl)propyl)-3-(methylsulfonyl)benzenesulfonamide] | 190
COc1cc(S(=O)(=O)N[C@H](c2n[nH]c(=O)o2)[C@H](C)c2c(F)ccc(C)c2C)c(C(N)=O)cc1Cl [Example 259, 5-chloro-2-(N-((1S,2R)-2-(6-fluoro-2,3-dimethylphenyl)-1-(5-oxo-4,5-dihydro-1,3,4-oxadiazol-2-yl)propyl)sulfamoyl)-4-methoxybenzamide] | 100
Cc1ccc(F)c([C@@H](C)[C@H](NS(=O)(=O)c2ccc3c(c2)CCCO3)c2n[nH]c(=O)o2)c1C [Example 183, N-((1S,2R)-2-(6-fluoro-2,3-dimethylphenyl)-1-(5-oxo-4,5-dihydro-1,3,4-oxadiazol-2-yl)propyl)chroman-6-sulfonamide] | 320
Cc1ccc(F)c([C@@H](C)[C@H](NS(=O)(=O)c2cc(C(=O)O)c(Cl)cc2C(N)=O)c2n[nH]c(=O)o2)c1C [Example 38, 4-carbamoyl-2-chloro-5-(N-((1S,2R)-2-(6-fluoro-2,3-dimethylphenyl)-1-(5-oxo-4,5-dihydro-1,3,4-oxadiazol-2-yl)propyl)sulfamoyl)benzoic acid] | 190
Cc1ccc(F)c([C@@H](C)[C@H](NS(=O)(=O)c2ccc(F)c3c2OCCC3O)c2n[nH]c(=O)o2)c1C (stereo partly drawn) [Example 241, 5-fluoro-N-((1S,2R)-2-(6-fluoro-2,3-dimethylphenyl)-1-(5-oxo-4,5-dihydro-1,3,4-oxadiazol-2-yl)propyl)-4-hydroxychroman-8-sulfonamide] | 140
Cc1c(Br)ccc(F)c1[C@@H](C)[C@H](NS(=O)(=O)c1ccc(F)c2c1OCCC2(C)O)c1n[nH]c(=O)o1 (single isomer, unassigned) [Example 227A] | 50
Cc1ccc(F)c([C@@H](C)[C@H](NS(=O)(=O)c2ccc(Cl)c(C(=O)N3CCC4(CCC4)C3)n2)c2n[nH]c(=O)o2)c1C [Example 115, 5-chloro-N-((1S,2R)-2-(6-fluoro-2,3-dimethylphenyl)-1-(5-oxo-4,5-dihydro-1,3,4-oxadiazol-2-yl)propyl)-6-(6-azaspiro[3.4]octane-6-carbonyl)pyridine-2-sulfonamide] | 180
Cc1c(F)ccc(F)c1[C@@H](C)[C@H](NS(=O)(=O)c1ccc(Cl)cc1C(N)=O)c1n[nH]c(=O)o1 [Example 28, 5-chloro-2-(N-((1S,2R)-2-(3,6-difluoro-2-methylphenyl)-1-(5-oxo-4,5-dihydro-1,3,4-oxadiazol-2-yl)propyl)sulfamoyl)benzamide] | 500
Cc1ccc(F)c([C@@H](C)[C@H](NS(=O)(=O)c2ccc(Cl)c3c2OCC(=O)N3CC(F)F)c2n[nH]c(=O)o2)c1C [Example 101, 5-chloro-4-(2,2-difluoroethyl)-N-((1S,2R)-2-(6-fluoro-2,3-dimethylphenyl)-1-(5-oxo-4,5-dihydro-1,3,4-oxadiazol-2-yl)propyl)-3-oxo-3,4-dihydro-2H-benzo[b][1,4]oxazine-8-sulfonamide] | 130
COc1cc(Cl)ccc1S(=O)(=O)N[C@H](c1n[nH]c(=O)o1)[C@H](C)c1c(F)ccc(-c2cnn(C)c2)c1C [Example 306, 4-chloro-N-((1S,2R)-2-(6-fluoro-2-methyl-3-(1-methyl-1H-pyrazol-4-yl)phenyl)-1-(5-oxo-4,5-dihydro-1,3,4-oxadiazol-2-yl)propyl)-2-methoxybenzenesulfonamide] | 90
Cc1ccc(S(=O)(=O)N[C@H](c2n[nH]c(=O)o2)[C@H](C)c2c(F)ccc3ccccc23)c(C(N)=O)c1 [Example 12, 2-(N-((1S,2R)-2-(2-Fluoronaphthalen-1-yl)-1-(5-oxo-4,5-dihydro-1,3,4-oxadiazol-2-yl)propyl)sulfamoyl)-5-methylbenzamide] | 170
CC(=O)NC1CCOc2c(S(=O)(=O)N[C@H](c3n[nH]c(=O)o3)[C@H](C)c3c(F)ccc(C)c3C)ccc(Cl)c21 (stereo partly drawn) [Example 157, N-(5-chloro-8-(N-((1S,2R)-2-(6-fluoro-2,3-dimethylphenyl)-1-(5-oxo-4,5-dihydro-1,3,4-oxadiazol-2-yl)propyl)sulfamoyl)chroman-4-yl)acetamide] | 100
COc1ccc(-c2cc(S(=O)(=O)N[C@H](c3n[nH]c(=O)o3)[C@H](C)c3c(F)ccc(C)c3C)ccc2Cl)cc1 [Example 344, 6-chloro-N-((1S,2R)-2-(6-fluoro-2,3-dimethylphenyl)-1-(5-oxo-4,5-dihydro-1,3,4-oxadiazol-2-yl)propyl)-4′-methoxy-[1,1′-biphenyl]-3-sulfonamide] | 720
C[C@H](c1c(F)ccc2ccccc12)[C@H](NS(=O)(=O)c1ccc(Cl)c2c1OCCC2F)c1n[nH]c(=O)o1 (mixture of isomers) [Example 292, 5-chloro-4-fluoro-N-((1S,2R)-2-(2-fluoronaphthalen-1-yl)-1-(5-oxo-4,5-dihydro-1,3,4-oxadiazol-2-yl)propyl)chroman-8-sulfonamide] | 160
CCc1ccc(F)c([C@@H](C)[C@H](NS(=O)(=O)c2ccc(Br)cc2C(N)=O)c2n[nH]c(=O)o2)c1C [Example 96, 5-bromo-2-(N-((1S,2R)-2-(3-ethyl-6-fluoro-2-methylphenyl)-1-(5-oxo-4,5-dihydro-1,3,4-oxadiazol-2-yl)propyl)sulfamoyl)benzamide] | 100
